Assay results reported in ChEMBL document CHEMBL5518232, “Discovery of New Tricyclic Oxime Sampangine Derivatives as Potent Antifungal Agents for the Treatment of Cryptococcosis and Candidiasis” (J Med Chem, 2024).
≈ marks a conversion by molar mass, not a printed value. Calls of active or inactive are those of the source. The rule behind the calls is not given here.

Experiments:
Candida albicans [1] = test: Antifungal activity against Candida albicans 0304103 assessed as reversal of ERG11 expression by measuring fold change at 16 ug/ml incubated for 24 hrs in presence of fluconazole by RT-PCR analysis (reference value: 8.8); assay type: functional; settings: dose 16 µg/ml
Candida albicans [2] = test: Antifungal activity against Candida albicans 0304103 assessed as downregulation of ERG11 expression at 16 ug/ml incubated for 24 hrs in presence of fluconazole by RT-PCR analysis; assay type: functional, organism-based; settings: dose 16.0 µg/ml
Candida albicans [3] = test: Antifungal activity against Candida albicans SC5314 assessed as reduction in fungal growth incubated for 48 hrs by liquid based microdilution method; assay type: functional
Candida albicans [4] = test: Antifungal activity against Candida albicans 0304103 assessed as downregulation of CDR1 expression at 16 ug/ml incubated for 24 hrs in presence of fluconazole by RT-PCR analysis; assay type: functional, organism-based; settings: dose 16.0 µg/ml
Candida albicans [5] = test: In vivo antifungal activity against Candida albicans SC5314 infected in […] ICR mouse model assessed as reduction in fungal burden in kidney at 10 mg/kg, ip measured for 5 days in presence of fluconazole; assay type: functional; settings: time 5 day
Candida albicans [6] = test: In vivo antifungal activity against Candida albicans 0304103 infected in […] ICR mouse model assessed as reduction in fungal burden in kidney at 5 mg/kg, ip measured for 5 days in presence of fluconazole (reference value: 7.37 log10CFU/g); assay type: functional; settings: time 5 day
Candida albicans [7] = test: Antifungal activity against Candida albicans 0304103 assessed as downregulation of RLM1 expression at 8 ug/ml incubated for 24 hrs in presence of fluconazole by RT-PCR analysis; assay type: functional, organism-based; settings: dose 8.0 µg/ml
Cryptococcus neoformans [8] = test: Inhibition of biofilm formation in Cryptococcus neoformans H99 at 0.063 ug/ml incubated for 24 hrs by microplate based analysis relative to control; assay type: functional
Candida albicans [9] = test: In vivo antifungal activity against Candida albicans 0304103 infected in […] ICR mouse model assessed as reduction in fungal burden in kidney at 5 mg/kg, ip measured for 5 days (reference value: 7.37 log10CFU/g); assay type: functional; settings: time 5 day
Candida albicans [10] = test: Antifungal activity against Candida albicans 0304103 assessed as inhibition of fungal growth at 8 ug/ml incubated for 48 hrs in presence of fluconazole by time growth curve assay; assay type: functional, organism-based; settings: dose 8.0 µg/ml
Cryptococcus neoformans [11] = test: Antifungal activity against Cryptococcus neoformans H99 assessed as inhibition of capsule growth 2 ug/ml measured after 24 hrs by laser confocal microscopy based analysis relative to control; assay type: functional; parameters: scale not given: the % may be the effect or the level left; settings: dose 2 µg/ml
Candida albicans [12] = test: Antifungal activity against Candida albicans 0304103 assessed as inhibition of fungal growth at 32 ug/ml incubated for 72 hrs by time growth curve assay; assay type: functional, organism-based; settings: dose 32.0 µg/ml
[13] = Effective permeability of the compound across blood brain barrier incubated for 12 hrs by PAMPA assay; assay type: ADME; settings: read-out: Peff
Candida albicans [14] = test: Antifungal activity against Candida albicans 0304103 assessed as log reduction in fungal growth at 8 ug/ml incubated for 48 hrs by time growth curve assay (reference value: 7.38 log10CFU/ml); assay type: functional; settings: dose 8 µg/ml
Candida parapsilosis = test: Synergistic antifungal activity against Candida parapsilosis 20090 assessed as inhibition of fungal growth incubated for 48 hrs in presence of fluconazole by checkerboard microdilution assay; assay type: functional, organism-based
Candida albicans [15] = test: Inhibition of biofilm formation in Candida albicans 0304103 at 2 ug/ml incubated for 24 hrs in presence of fluconazole by microplate based analysis relative to control; assay type: functional
Clavispora lusitaniae = test: Synergistic antifungal activity against Candida lusitaniae 9150 assessed as inhibition of fungal growth incubated for 48 hrs in presence of fluconazole by checkerboard microdilution assay; assay type: functional, organism-based
Candida albicans [16] = test: Antifungal activity against Candida albicans 0304103 assessed as reduction in fungal growth incubated for 48 hrs by liquid based microdilution method; assay type: functional
Candida albicans [17] = test: Antifungal activity against Candida albicans 0304103 assessed as downregulation of TEC1 expression at 8 ug/ml incubated for 24 hrs in presence of fluconazole by RT-PCR analysis; assay type: functional, organism-based; settings: dose 8.0 µg/ml
Candida tropicalis [18] = test: Synergistic antifungal activity against Candida tropicalis 10186 assessed as inhibition of fungal growth incubated for 48 hrs in presence of fluconazole by checkerboard microdilution assay; assay type: functional, organism-based
Candida albicans [19] = test: Antifungal activity against Candida albicans 0304103 assessed as downregulation of GCA2 expression at 8 ug/ml incubated for 24 hrs in presence of fluconazole by RT-PCR analysis; assay type: functional, organism-based; settings: dose 8.0 µg/ml
Candida albicans [20] = test: Antifungal activity against Candida albicans 0304103 assessed as downregulation of GCA1 expression at 8 ug/ml incubated for 24 hrs in presence of fluconazole by RT-PCR analysis; assay type: functional, organism-based; settings: dose 8.0 µg/ml
Cryptococcus neoformans [21] = test: Antifungal activity against Cryptococcus neoformans H99 assessed as log reduction in fungal growth at 2 ug/ml incubated for 72 hrs by time growth curve assay (reference value: 7.65 log10CFU/ml); assay type: functional; settings: dose 2 µg/ml
Candida albicans [22] = test: Inhibition of biofilm formation in Candida albicans 0304103 at 2 ug/ml incubated for 24 hrs by microplate based analysis relative to control; assay type: functional
Pichia kudriavzevii = test: Synergistic antifungal activity against Candida krusei 10153 assessed as inhibition of fungal growth incubated for 48 hrs in presence of fluconazole by checkerboard microdilution assay; assay type: functional, organism-based
Candida albicans [23] = test: Synergistic antifungal activity against Candida albicans 0304103 assessed as inhibition of fungal growth incubated for 48 hrs in presence of fluconazole by checkerboard microdilution assay; assay type: functional
Nakaseomyces glabratus = test: Antifungal activity against Candida glabrata 9073 assessed as reduction in fungal growth incubated for 48 hrs by liquid based microdilution method; assay type: functional
Candida tropicalis [24] = test: Antifungal activity against Candida tropicalis 10186 assessed as reduction in fungal growth incubated for 48 hrs by liquid based microdilution method; assay type: functional
Candida albicans [25] = test: Inhibition of biofilm formation in Candida albicans 0304103 at 0.125 ug/ml incubated for 24 hrs by microplate based analysis relative to control; assay type: functional
Candida albicans [26] = test: Synergistic antifungal activity against Candida albicans 0304103 assessed as fractional inhibitory concentration index by measuring ratio of MIC80 for compound and synergetic / MIC80 for compound alone + MIC80 for fluconazole synergetic / MIC80 for fluconazole alone; assay type: functional
[27] = Antifungal activity against Cryptococcus gattii VGI ATCC 14116 assessed as reduction in fungal growth incubated for 72 hrs by liquid based microdilution method; assay type: functional
[Candida] auris = Synergistic antifungal activity against Candida auris 0029 assessed as inhibition of fungal growth incubated for 48 hrs in presence of fluconazole by checkerboard microdilution assay; assay type: functional, organism-based; settings: Candidozyma auris
Candida albicans [28] = test: Antifungal activity against Candida albicans 0304103 assessed as downregulation of APH5 expression at 8 ug/ml incubated for 24 hrs in presence of fluconazole by RT-PCR analysis; assay type: functional, organism-based; settings: dose 8.0 µg/ml
Candida albicans [29] = test: In vivo antifungal activity against Candida albicans SC5314 infected in […] ICR mouse model assessed as reduction in fungal burden in kidney at 10 mg/kg, ip measured for 5 days; assay type: functional, organism-based; settings: time 5.0 day
Cryptococcus neoformans [30] = test: Antifungal activity against Cryptococcus neoformans H99 assessed as reduction in fungal growth incubated for 72 hrs by liquid based microdilution method; assay type: functional
Cryptococcus neoformans [31] = test: Antifungal activity against Cryptococcus neoformans H99 assessed as inhibition of fungal growth incubated for 72 hrs by time growth curve assay; assay type: functional, organism-based; settings: dose 0.13-2 µg/ml
Cryptococcus neoformans [32] = test: Antifungal activity against Cryptococcus neoformans H99 assessed as inhibition of capsule growth at 0.063 to 2 ug/ml measured after 24 hrs by laser confocal microscopy based analysis; assay type: functional, organism-based; settings: dose 0.063-2 µg/ml
Cryptococcus neoformans [33] = test: In vivo antifungal activity against Cryptococcus neoformans H99 infected in cryptococcal meningitis ICR mouse model assessed as reduction in fungal burden in brain at 5 mg/kg, ip measured for 5 days (reference value: 8.18 log10CFU/g); assay type: functional; settings: time 5 day
Cryptococcus neoformans [34] = test: Antifungal activity against Cryptococcus neoformans ATCC 34877 assessed as reduction in fungal growth incubated for 72 hrs by liquid based microdilution method; assay type: functional
Candida albicans [35] = test: Antifungal activity against Candida albicans 0304103 assessed as inhibition of filamentation at 2 ug/ml incubated for 3 hrs by inverted cell microscope based analysis; assay type: functional, organism-based; settings: dose 2.0 µg/ml

SMILES: CO/N=C1/c2ccsc2C(=O)c2c(C)noc21
- fold change (FC) (Candida albicans [1]): 0.8
- Activity (Candida albicans [2]): Active
- MIC80 (Candida albicans [3]): > 64 µg/mL
- Activity (Candida albicans [4]): Active
- Activity (Candida albicans [5]): 5.02 log10CFU/g
- Activity (Candida albicans [6]): 5.31 log10CFU/g
- Activity (Candida albicans [7]): Active
- inhibition at 0.063 µg/mL (Cryptococcus neoformans [8]): > 90%
- Activity (Candida albicans [9]): 5.73 log10CFU/g
- Activity (Candida albicans [10]): Active
- Activity (Cryptococcus neoformans [11]): 100%
- Activity (Candida albicans [12]): Active
- Papp at 12 h [13]: 8.34 ×10⁻⁶ cm/s
- Activity (Candida albicans [14]): 6.13 log10CFU/ml
- Activity (Candida parapsilosis): inactive
- inhibition at 2 µg/mL (Candida albicans [15]): 50%
- Activity (Clavispora lusitaniae): inactive
- MIC80 (Candida albicans [16]): 32 µg/mL (≈ 129 µM)
- Activity (Candida albicans [17]): Active
- Activity (Candida tropicalis [18]): inactive
- Activity (Candida albicans [19]): Active
- Activity (Candida albicans [20]): Active
- Activity (Cryptococcus neoformans [21]): 6.22 log10CFU/ml
- inhibition at 2 µg/mL (Candida albicans [22]): ~30%
- Activity (Pichia kudriavzevii): inactive
- MIC80 (Candida albicans [23]): 2 µg/mL
- MIC80 (Nakaseomyces glabratus): > 64 µg/mL
- MIC80 (Candida tropicalis [24]): 16 µg/mL (≈ 64.4 µM)
- inhibition at 0.125 µg/mL (Candida albicans [25]): 40%
- fractional inhibitory concentration index (FICI) (Candida albicans [26]): 0.078
- MIC80 [27]: 4 µg/mL (≈ 16.1 µM)
- Activity ([Candida] auris): inactive
- Activity (Candida albicans [28]): Active
- Activity (Candida albicans [29]): Active
- MIC80 (Cryptococcus neoformans [30]): 0.016 µg/mL (≈ 0.0644 µM)
- Activity (Cryptococcus neoformans [31]): Dose-Dependent Effect
- Activity (Cryptococcus neoformans [32]): Active
- Activity (Cryptococcus neoformans [33]): 7.96 log10CFU/g
- MIC80 (Cryptococcus neoformans [34]): 0.13 µg/mL (≈ 0.524 µM)
- Activity (Candida albicans [35]): Active
